In patent publication US5037960A, “Inhibitor of protein synthesis, process for its isolation, its use and pharmaceutical compositions in which it is present” (priority 1986, dated 1991):

System: protein synthesis (subcellular fractions of rat liver)
Assay type: biochemical
Conditions: compared with native trichokirin
From the text: The in vitro protocol uses appropriately complemented subcellular fractions of rat liver capable of incorporating ^14 C-phenylalanine in the presence of an artificial messenger RNA: polyuridylic acid.
The procedure employed for preparing the subcellular fractions and measuring the incorporation of ^14 C-phenylalanine is an adaptation of the method described in BBA 312, 608-615 (1973), using both a microsomal fraction and a cytosol fraction of the rat hepatocytes. The sample containing the trichokirin is introduced in the form of a solution appropriately diluted in a 50 mM tris-HCl buffer, pH 7.6, containing 0.2% of 2-mercaptoethanol and 15 micrograms/ml of bovine serum albumin. The count data are used to calculate, relative to a reference medium without inhibitor, the percentage inhibition of the incorporation of ^14 C-phenylalanine for each reaction medium.
The values obtained together make it possible to determine the concentration of trichokirin (or IC50) which inhibits the incorporation of ^14 C-phenylalanine by 50% under the experimental conditions.

mercaptosuccinoyl-trichokirin [modified trichokirin]
effect of the modification on activity: does not cause a significant loss of activity
